This passage reports LC50, LD50 and MIC results from ChEMBL document CHEMBL3576765, “Rubrumazines A-C, Indolediketopiperazines of the Isoechinulin Class from Eurotium rubrum MA-150, a Fungus Obtained from Marine Mangrove-Derived Rhizospheric Soil” (J Nat Prod, 2015).

Values after ≈ are worked out from the molar mass of the structure shown.

One may read the MIC as the lowest concentration found to suppress growth.

Tested on in one data set: not listed separately
In words: (§1) Toxicity in brine shrimp assessed as mortality. To be noted: artemia salina, in vivo; read-out: LD50 (the source's name). Type of data set: organism-based.
For `COc1cc2c(c(OC)c1OC)-c1ccc(OC)c(=O)cc1[C@@H](NC(C)=O)CC2` [COLCHICINE], the LC50 worked out at 19.4 µM. In the case of `C=CC(C)(C)c1[nH]c2ccccc2c1/C=C1\NC(=O)C2(C=C3c4cc(O)cc(OC)c4C(=O)c4c(O)cc(C)c(c43)O2)NC1=O` (stereo unspecified), the LC50 was found to be 9.8 µM. Regarding `C=CC(C)(C)c1[nH]c2c(C[C@H](O)C(C)(C)OC)cccc2c1/C=C1\NC(=O)[C@H](C)NC1=O`, the LC50 stood at 29.8 µM. As to `C=CC(C)(C)c1[nH]c2ccc(CC=C(C)C)cc2c1/C=C1\NC(=O)[C@H](C)NC1=O` [ISOECHINULIN A], the LC50 is 11.7 µM. With `C=CC(C)(C)c1[nH]c2ccccc2c1/C=C1\NC(=O)C2(C=C3c4cc(O)cc(O)c4C(=O)c4c(O)cc(C)c(c43)O2)NC1=O` (stereo unspecified), the LC50 came to 16.7 µM.

With `C=CC(C)(C)c1[nH]c2c(C[C@H](O)C(C)(C)O)cccc2c1C[C@@H]1NC(=O)[C@H](C)NC1=O`, the LC50 came to 16.5 µM. For the compound `C=CC(C)(C)c1[nH]c2c(CC=C(C)C)cccc2c1/C=C1\NC(=O)[C@H](C)NC1=O` [VARIECOLORIN G], the LC50 was determined as 22 µM. On the same count and under the same terms, the value for `C=CC(C)(C)c1[nH]c2c(C[C@H](O)C(C)(C)O)cccc2c1/C=C1\NC(=O)[C@H](C)NC1=O` was 2.4 µM; that for `C=CC(C)(C)c1[nH]c2c(CC=C(C)C)cc(CC=C(C)C)c(CC=C(C)C)c2c1/C=C1\NC(=O)[C@H](C)NC1=O` was 3.5 µM. As for `C=CC(C)(C)c1[nH]c2ccc(CC(=O)C(C)C)cc2c1/C=C1\NC(=O)[C@H](C)NC1=O` [VARIECOLORIN E], the LC50 stood at 24 µM.

For `C[C@@H]1NC(=O)[C@H](Cc2c[nH]c3ccccc23)NC1=O`, the LC50 was 25.5 µM. For the compound `C=CC(C)(C)c1[nH]c2ccccc2c1/C=C1\NC(=O)C(=O)NC1=O`, the LC50 is 3.9 µM.

Another data set deals with Artemia salina. Described as §1. Particulars: in vivo; call rule not given here. Type of data set: organism-based.
On to `C=CC(C)(C)c1[nH]c2ccc(CC=C(C)C)c(CC=C(C)C)c2c1C[C@@H]1NC(=O)[C@H](C)NC1=O` [VARIECOLORIN L], for which the LD50 result is given as “Not Active”. For `C=CC(C)(C)c1[nH]c2c(CC=C(C)C)cc(CC=C(C)C)cc2c1C[C@@H]1NC(=O)[C@H](C)NC1=O` [ECHINULIN], the LD50 entry is given as “Not Active”. Consider `C=CC(C)(C)c1[nH]c2ccc(CC=C(C)C)cc2c1C[C@@H]1NC(=O)[C@H](C)NC1=O` [TARDIOXOPIPERAZINE A], for which the LD50 result is listed as “Not Active”.

A further data set relates to Vibrio alginolyticus. Put plainly: Antibacterial activity against Vibrio alginolyticus by well diffusion method. Type of data set: functional.
Conditions: not given
For `O=C(N[C@H](CO)[C@H](O)c1ccc([N+](=O)[O-])cc1)C(Cl)Cl` [CHLORAMPHENICOL], the minimal inhibitory concentration (MIC) turned out to be 4 µg/mL (≈ 12.4 µM).
